These results are taken from patent US10336697B2, “Spiro[cyclobutane-1,3′-indolin]-2′-one derivatives as bromodomain inhibitors” (Orion Corporation, priority 2015, dated 2019).

In this assay the target is Bet BRD4 full length bromo-domain protein (Homo sapiens, UniProt O60885). The experiment in a line: Bet bromodomain TR-FRET assay (displacement of acetyl histone peptide). Format: binding. The note with it: Bet BRD4 full length bromodomain protein, 300 nM acetyl histone peptide substrate, read-out: IC50. Background: In TR-FRET formats the signal depends on donor and acceptor labels being close together.

Molecules are shown by their SMILES. Structures can show the parent of a compound that is named as a salt.

In general, IC50 refers to the concentration at which inhibition is half-maximal. As to `COc1ccccc1S(=O)(=O)Nc1cc(OC2CCN(C)CC2)c2c(c1)C1(CCC1)C(=O)N2` [Compound-127, 2-methoxy-N-(7′-((1-methylpiperidin-4-yl)oxy)-2′-oxospiro[cyclobutane-1,3′-indolin]-5′-yl)benzenesulfonamide], the IC50 is below 600 nM. Turning to `COc1ccccc1S(=O)(=O)Nc1cc(OC2CCOCC2)c2c(c1)C1(CCC1)C(=O)N2` [Compound 141, 2-Methoxy-N-(2′-oxo-7′-((tetrahydro-2H-pyran-4-yl)oxy)spiro[cyclobutane-1,3′-indolin]-5′-yl)benzenesulfonamide], the half-maximal inhibitory concentration (IC50) was below 600 nM. The value for `COc1cc(F)ccc1S(=O)(=O)Nc1cc(OC2CCN(C)CC2)c2c(c1)C1(CCC1)C(=O)N2` [Compound-189, 4-Fluoro-2-methoxy-N-(7′-((1-methylpiperidin-4-yl)oxy)-2′-oxospiro[cyclobutane-1.3′-indolin]-5′-yl)benzenesulfonamide] was below 600 nM. In the case of `CC(C)Oc1ccccc1S(=O)(=O)Nc1cc(OC2CCN(C)CC2)c2c(c1)C1(CCC1)C(=O)N2` [Compound-184, 2-Isopropoxy-N-(7′-((1-methylpiperidin-4-yl)oxy)-2′-oxospiro[cyclobutane-1,3′-indolin]-5′-yl)benzenesulfonamide], the IC50 was below 600 nM. The value for `CC1CC(Oc2cc(NS(=O)(=O)c3ccc(Cl)cc3F)cc3c2NC(=O)C32CCC2)CC(C)N1` (stereo not shown) [compound 201, 4-Chloro-N-(7′-((2,6-dimethylpiperidin-4-yl)oxy)-2′-oxospiro[cyclobutane-1,3′-indolin]-5′-yl)-2-fluorobenzenesulfonamide] was below 600 nM; that for `COc1ccccc1S(=O)(=O)Nc1cc(OCCNC2CC2)c2c(c1)C1(CCC1)C(=O)N2` [compound 206, N-(7′-(2-(cyclopropylamino)ethoxy)-2′-oxospiro[cyclobutane-1,3′-indolin]-5′-yl)-2-methoxybenzenesulfonamide] was below 600 nM; that for `COc1ccccc1S(=O)(=O)Nc1cc(C(C)c2ccccc2)c2c(c1)C1(CCC1)C(=O)N2` (single isomer, unassigned) [Compound 114, 2-Methoxy-N-(2′-oxo-7′-(1-phenylethyl)spiro [cyclobutane-1,3′-indolin]-5′-yl)benzenesulfonamide] was below 600 nM. Then `CN1CCC(CCc2cc(NS(=O)(=O)c3ccc(F)cc3F)cc3c2NC(=O)C32CCC2)CC1` [Compound 116, 2,4-Difluoro-N-(7′-(2-(1-methylpiperidin-4-yl)ethyl)-2′-oxospiro-[cyclobutane-1,3′-indolin]-5′-yl)benzenesulfonamide], with below 600 nM. Then `COc1ccccc1S(=O)(=O)Nc1cc(OC(C)c2ccccn2)c2c(c1)C1(CCC1)C(=O)N2` (single isomer, unassigned) [Compound 150, 2-Methoxy-N-(2′-oxo-7′-(1-(pyridin-2-yl)ethoxy)spiro[cyclobutane-1,3′-indolin]-5′-yl)benzenesulfonamide], with 600 to 1000 nM. Regarding `CCN1CCC(NC(=O)c2cc(NS(=O)(=O)c3ccc(F)cc3F)cc3c2NC(=O)C32CCC2)CC1` [Compound 54, 5′-(2,4-Difluorophenylsulfonamido)-N-(1-ethylpiperidin-4-yl)-2′-oxospiro[cyclobutane-1,3′-indoline]-7′-carboxamide], the IC50 was below 600 nM. Then `CCNCCOc1cc(NS(=O)(=O)c2ccccc2OC)cc2c1NC(=O)C21CCC1` [compound 205, N-(7′-(2-(ethylamino)ethoxy)-2′-oxospiro[cyclobutane-1,3′-indolin]-5′-yl)-2-methoxybenzenesulfonamide], with below 600 nM. Then `O=C(NC1CCCNC1)c1cc(NS(=O)(=O)c2ccc(F)cc2F)cc2c1NC(=O)C21CCC1` (single isomer, unassigned) [Compound 68, 5′-(2,4-Difluorophenylsulfonamido)-2′-oxo-N-(piperidin-3-yl)spiro[cyclobutane-1,3′-indoline]-7′-carboxamide], with below 600 nM; and `CN1CCC(C(=O)Nc2cc(NS(=O)(=O)c3ccc(F)cc3F)cc3c2NC(=O)C32CCC2)CC1` [Compound 43, N-(5′-((2,4-difluorophenyl)sulfonamido)-2′-oxospiro[cyclobutane-1,3′-indolin]-yl)-1-methylpiperidine-4-carboxamide], with 600 to 1000 nM. On to `O=C(Nc1cc(C2CC2)c2c(c1)C1(CCC1)C(=O)N2)c1ccc(F)cc1` [Compound 75a, N-(7′-Cyclopropyl-2′-oxospiro[cyclobutane-1,3′-indolin]-5′-yl)-4-fluorobenzamide], for which the IC50 fell in the range of 600 to 1000 nM. With `O=C1Nc2c(-c3ccc4cn[nH]c4c3)cc(NS(=O)(=O)c3ccc(F)cc3F)cc2C12CCC2` [Compound 7, N-(7′-(1H-indazol-6-yl)-2′-oxospiro[cyclobutane-1,3′-indolin]-5′-yl)-2,4-difluorobenzenesulfonamide], the IC50 was in the range of 600 to 1000 nM. As for `O=C(NC1CCCNC1)c1cc(NS(=O)(=O)c2ccc(F)cc2F)cc2c1NC(=O)C21CCC1` (single isomer, unassigned) [Compound 67, 5′-(2,4-Difluorophenylsulfonamido)-2′-oxo-N-(piperidin-3-yl)spiro[cyclobutane-1,3′-indoline]-7′-carboxamide], the IC50 was in the range of 600 to 1000 nM. Turning to `O=C1Nc2c(CO)cc(NS(=O)(=O)c3ccc(F)cc3F)cc2C12CCC2` [Compound 69, 2,4-Difluoro-N-(7′-(hydroxymethyl)-2′-oxospiro[cyclobutane-1,3′-indolin]-5′-yl)benzenesulfonamide], the IC50 was below 600 nM. The value for `CN1CCC(Oc2cc(NS(=O)(=O)c3ccc(Cl)cc3F)cc3c2NC(=O)C32CCC2)C1` (stereo not shown) [Compound 138, 4-Chloro-2-fluoro-N-(7′-((1-methylpyrrolidin-3-yl)oxy)-2′-oxospiro[cyclobutane-1,3′-indolin]-5′-yl)benzenesulfonamide] was below 600 nM; that for `O=C1Nc2c(NC3CCCNC3)cc(NS(=O)(=O)c3ccc(F)cc3F)cc2C12CCC2` (stereo not shown) [Compound 71, 2,4-Difluoro-N-(2′-oxo-7′-(piperidin-3-ylamino)spiro[cyclobutane-1,3′-indolin]-5′-yl)benzenesulfonamide hydrochloride] was below 600 nM; that for `CN1CCCC(Oc2cc(NS(=O)(=O)c3ccc(Cl)cc3F)cc3c2NC(=O)C32CCC2)C1` (stereo not shown) [Compound 131, 4-Chloro-2-fluoro-N-(7′-((1-methylpiperidin-3-yl)oxy)-2′-oxospiro[cyclobutane-1,3′-indolin]-5′-yl)benzenesulfonamide] was 600 to 1000 nM. For `COc1ccccc1S(=O)(=O)Nc1cc(OC2CCN(C)CC2)c2c(c1Cl)C1(CCC1)C(=O)N2` [Compound-215, N-(4′-chloro-7′-((1-methylpiperidin-4-yl)oxy)-2′-oxospiro-[cyclobutane-1,3′-indolin]-5′-yl)-2-methoxybenzenesulfonamide], the IC50 lay within 600 to 1000 nM. The value for `CN1CCC(c2cc(NS(=O)(=O)c3ccc(F)cc3F)cc3c2NC(=O)C32CCC2)CC1` [Compound 89, 2,4-Difluoro-N-(7′-(1-methylpiperidin-4-yl)-2′-oxospiro[cyclobutane-1,3′-indolin]-5′-yl)benzenesulfonamide] was below 600 nM; that for `Cn1cncc1COc1cc(NS(=O)(=O)c2ccc(Cl)cc2F)cc2c1NC(=O)C21CCC1` [Compound 160, 4-Chloro-2-fluoro-N-(7′-((1-methyl-1H-imidazol-5-yl)methoxy)-2′-oxospiro[cyclobutane-1,3′-indolin]-5′-yl)benzenesulfonamide] was below 600 nM. Then `O=C(Nc1cc(Br)c2c(c1)C1(CCC1)C(=O)N2)c1cccnc1N1CCOCC1` [Compound-222, N-(7′-bromo-2′-oxospiro[cyclobutane-1,3′-indolin]-5′-yl)-2-morpholinonicotinamide], with above 1000 nM; and `COc1cccc(OC)c1S(=O)(=O)Nc1cc(OC2CCN(C)CC2)c2c(c1)C1(CCC1)C(=O)N2` [compound 186, 2,6-Dimethoxy-N-(7′-((1-methylpiperidin-4-yl)oxy)-2′-oxospiro[cyclobutane-1,3′-indolin]-5′-yl)benzenesulfonamide], with above 1000 nM. Then `CN1CCC(Oc2cc(NS(=O)(=O)c3ccc(F)cc3Br)cc3c2NC(=O)C32CCC2)CC1` [Compound 132, 2-Bromo-4-fluoro-N-(7′-((1-methylpiperidin-4-yl)oxy)-2′-oxospiro[cyclobutane-1,3′-indolin]-5′-yl)benzenesulfonamide], with below 600 nM; and `COc1ccccc1S(=O)(=O)Nc1cc(NC2CCCN(C)C2)c2c(c1)C1(CCC1)C(=O)N2` (stereo not shown) [Compound 38, 2-Methoxy-N-(7′-((1-methylpiperidin-3-yl)amino)-2′-oxospiro[cyclobutane-1,3′-indolin]-5′-yl)benzenesulfonamide], with below 600 nM. For the compound `CC1(C)CN(Cc2ccccc2)CCC1Nc1cc(NS(=O)(=O)c2ccc(F)cc2F)cc2c1NC(=O)C21CCC1` (stereo not shown) [Compound 36, N-(7′-((1-benzyl-3,3-dimethylpiperidin-4-yl)amino)-2′-oxospiro[cyclobutane-1,3′-indolin]-5′-yl)-2,4-difluorobenzenesulfonamide], the IC50 was 600 to 1000 nM. For `CN1CCCC(Nc2cc(NS(=O)(=O)c3ccc(F)cc3F)cc3c2NC(=O)C32CCC2)C1` (stereo not shown) [Compound 16, 2,4-difluoro-N-(7′-((1-methylpiperidin-3-yl)amino)-2′-oxospiro [cyclobutane-1,3′-indolin]-5′-yl)benzenesulfonamide], the IC50 was below 600 nM. Then `CN1CCC(NC(=O)c2cc(NS(=O)(=O)c3cc(F)ccc3F)cc3c2NC(=O)C32CCC2)CC1` [Compound 86, 5′-(2,5-Difluorophenylsulfonamido)-N-(1-methylpiperidin-4-yl)-2′-oxospiro[cyclobutane-1,3′-indoline]-7′-carboxamide], with below 600 nM.

As to `CCC(=O)N1CCC(Nc2cc(NS(=O)(=O)c3ccc(F)cc3F)cc3c2NC(=O)C32CCC2)CC1` [Compound 21, 2,4-Difluoro-N-(2′-oxo-7′-((1-propionylpiperidin-4-yl)amino)spiro[cyclobutane-1,3′-indolin]-5′-yl)benzenesulfonamide], the IC50 is below 600 nM.
